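Tested at 5 concentrations; 48 h exposure; 96-well plates; endpoints linearly interpolated, else capped at highest concentration. Here, GI50 denotes the concentration required for 50% inhibition of growth. Definition used: TGI = concentration required for complete inhibition of growth.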
Experiments:
Assay in all cases: inhibition of tumour cell growth, NCI panel, 48 h
A549 NSCLC = tested on: A549 NSCLC
NCI-H23 lung = tested on: NCI-H23 lung
SF-539 CNS = tested on: SF-539 CNS
MOLT-4 leukemia = tested on: MOLT-4 leukemia
PC-3 prostate = tested on: PC-3 prostate
U251 CNS = tested on: U251 CNS
A498 renal = tested on: A498 renal
OVCAR-4 ovarian = tested on: OVCAR-4 ovarian
SW-620 colon = tested on: SW-620 colon
RPMI-8226 leukemia = tested on: RPMI-8226 leukemia

Compound | TGI (A549 NSCLC) [µM] | TGI (NCI-H23 lung) [µM] | TGI (SF-539 CNS) [µM] | TGI (MOLT-4 leukemia) [µM] | TGI (PC-3 prostate) [µM] | TGI (U251 CNS) [µM] | TGI (A498 renal) [µM] | TGI (OVCAR-4 ovarian) [µM] | TGI (SW-620 colon) [µM] | TGI (RPMI-8226 leukemia) [µM] | GI50 (SW-620 colon) [µM] | GI50 (A549 NSCLC) [µM] | GI50 (NCI-H23 lung) [µM] | GI50 (SF-539 CNS) [µM] | GI50 (RPMI-8226 leukemia) [µM] | GI50 (MOLT-4 leukemia) [µM] | GI50 (U251 CNS) [µM] | GI50 (A498 renal) [µM] | GI50 (OVCAR-4 ovarian) [µM] | GI50 (PC-3 prostate) [µM]
CC(C)=CCc1c(OC(=O)c2c(C)cc(O)cc2O)cc(CO)c(CO)c1O | 62.2 | 33 | 38 | 63 | 36.8 | 40 | 35.1 | 38.2 | – | – | – | – | – | – | – | – | – | – | – | –
c1cc(N(CCn2cccn2)CCn2cccn2)cc(N(CCn2cccn2)CCn2cccn2)c1 | > 100 | – | – | > 100 | – | > 100 | > 100 | > 100 | > 100 | > 100 | – | – | – | – | – | – | – | – | – | –
COC(=O)/C=C1/CCC(C(=O)OC)N1 (stereo not drawn) | > 100 | > 100 | > 100 | > 100 | – | > 100 | > 100 | > 100 | > 100 | > 100 | – | – | – | – | – | – | – | – | – | –
Nc1ccc(C2=NN(c3ccccc3)C(c3ccc(Cl)cc3)C2)cc1 (stereo not drawn) | 7.98 | 5.09 | 4.21 | 6.61 | – | 2.79 | 13 | 45.5 | 3.35 | 4.88 | 1.67 | 2.45 | 2.12 | 1.93 | 1.86 | 2.23 | 1.47 | 1.9 | 4.84 | –
CC1CCC2(CC1)NN=c1s/c(=C\c3ccc(O)cc3)c(=O)n1N2 (stereo not drawn) | > 100 | > 100 | > 100 | > 100 | – | > 100 | – | > 100 | > 100 | > 100 | – | – | – | – | – | – | – | – | – | –
COCCCNC(=O)C1C(=O)N(CCCOC)C(=O)/C1=N\N (stereo not drawn) | > 100 | > 100 | > 100 | > 100 | – | > 100 | > 100 | > 100 | > 100 | > 100 | – | – | – | – | – | – | – | – | – | –
CCOC(=O)C1N(S(=O)(=O)c2ccc(C)cc2)CCC12c1ccccc1N(C(C)=O)C2c1ccc(OC)c(OC)c1 (stereo not drawn) | > 100 | > 100 | > 100 | – | – | > 100 | > 100 | > 100 | > 100 | > 100 | – | – | – | – | – | – | – | – | – | –
Oc1[nH]c2ccccc2c1N=Nc1ccccn1 | > 100 | > 100 | – | > 100 | > 100 | 46.6 | 70.6 | 45.6 | > 100 | > 100 | – | – | – | – | – | – | – | – | – | –
COc1ccc(Nc2nc3ccc(C(F)(F)F)cc3nc2-c2ccccc2)cc1OC | > 100 | > 100 | > 100 | > 100 | – | > 100 | > 100 | > 100 | > 100 | – | – | – | – | – | – | – | – | – | – | –
CC(C)CC(NC(=O)c1cccc(O)c1O)C(=O)NCc1cc(CNC(=O)C(CC(C)C)NC(=O)c2cccc(O)c2O)cc(CNC(=O)C(CC(C)C)NC(=O)c2cccc(O)c2O)c1 (stereo not drawn) | 50.3 | 36.1 | 20.9 | 37.9 | – | 29.5 | > 100 | 56.5 | 61.8 | 21.8 | – | – | – | – | – | – | – | – | – | –
COc1ccc2c(c1)N1CCc3cc(OC)c(OC)cc3C1C2 (stereo not drawn) | > 100 | > 100 | > 100 | > 100 | – | > 100 | > 100 | > 100 | > 100 | – | – | – | – | – | – | – | – | – | – | –
COc1cc(NC(N)=NCCC(C)(C)Oc2ccc(C(F)(F)F)cc2)ncc1C#N | 3.18 | 2.81 | 3.26 | – | 2.82 | 3.22 | 3.23 | 3.07 | 3.46 | – | 1.69 | 1.73 | 1.43 | 1.8 | – | – | 1.79 | 1.8 | 1.58 | 1.42
CN(C)CC(C)(C)C(=O)/C=C/c1ccc(/C=C/C(=O)C(C)(C)CN(C)C)cc1 | 7.4 | 3.93 | 3.81 | – | – | 3.04 | 3.46 | 2.29 | 2.17 | 5.47 | – | – | – | – | – | – | – | – | – | –
Clc1ccc(SC(/C=C/NNC2=NC(c3ccccc3)C(c3ccccc3)=NN2)c2ccccc2)cc1 (stereo not drawn) | > 100 | 61.6 | > 100 | 38.4 | – | > 100 | > 100 | 68.2 | > 100 | 30.3 | – | – | – | – | – | – | – | – | – | –
CCCCCC[N+](C)(C)Cc1ccc(C[N+](C)(C)CCCCCC)cc1 | 12.8 | – | – | – | – | 7.28 | 38.9 | > 100 | 26.6 | 9.96 | – | – | – | – | – | – | – | – | – | –
CCC[CH2][Sn]([CH2]CCC)([CH2]CCC)[O]c1ccc(Cl)cc1Cl | 0.345 | 0.321 | 0.372 | 2.77 | 0.443 | 0.297 | 0.21 | 0.236 | 0.279 | – | 0.131 | 0.159 | 0.109 | 0.179 | – | 0.165 | 0.146 | 0.0565 | 0.114 | 0.15
O=c1nc(/C=C/c2ccccc2Cl)cc2n1CCN2CCO | – | – | > 100 | > 100 | – | – | – | > 100 | > 100 | > 100 | – | – | – | – | – | – | – | – | – | –
O=C1c2ccccc2C(Br)(Br)c2ccccc21 | > 31.6 | > 100 | > 100 | > 31.6 | – | > 31.6 | – | > 31.6 | > 31.6 | – | – | – | – | – | – | – | – | – | – | –
COc1cccc(-c2nc3sccn3c2-c2ccnc(NCCCNS(=O)(=O)c3cccc(F)c3)c2)c1 | > 100 | 7.29 | > 100 | 5.46 | 11.6 | > 100 | – | – | > 100 | 4.56 | 3.16 | 2.99 | 2.12 | 3.87 | 1.29 | 1.84 | 4.77 | – | – | 2.12
CC(C)CCC(=O)c1ccoc1 | > 100 | > 100 | > 100 | > 100 | > 100 | > 100 | – | > 100 | > 100 | > 100 | – | – | – | – | – | – | – | – | – | –
C=C(c1ccc2nc(NC(=O)OC)[nH]c2c1)c1cccs1 | > 100 | – | 0.523 | – | > 100 | 7.31 | 2.71 | > 100 | > 100 | 3.59 | – | – | – | – | – | – | – | – | – | –

From PubChem BioAssay (NCI)
